The source of these data is ChEMBL document CHEMBL5053499, “Indole Alkaloids from a Soil-Derived Clonostachys rosea” (J Nat Prod, 2021).

pIC50: −log10 of the molar value. Values after ≈ are worked out from the molar mass of the structure shown. Active and inactive are the calls of the source. The calls are words filed in the database; no cut-off is given here. Some results are limits rather than exact numbers.

Experiment [1] concerns Bacillus subtilis. Description: Antimicrobial activity against Bacillus subtilis assessed as reduction in bacterial growth at 100 ug/ml measured after 48 hrs by double dilution method. In kind it is functional. The settings on record: for Activity: dose 100.0 µg/ml.
For experiment [2], the system named is Alternaria alternata. Description: Antifungal activity against Alternaria alternata assessed as inhibition of fungal growth measured after 72 hrs by double dilution method. In kind it is functional, organism-based.
The test system of experiment [3] is Fusarium oxysporum. Description: Antifungal activity against Fusarium oxysporum assessed as inhibition of fungal growth measured after 72 hrs by double dilution method. In kind it is functional.
Experiment [4] concerns Phytophthora capsici. Kind of experiment: Antifungal activity against Phytophthora capsici assessed as inhibition of fungal growth measured after 72 hrs by double dilution method. Format: functional, organism-based.
In experiment [5] the test system is Pseudomonas syringae pv. actinidiae. Kind of experiment: Antimicrobial activity against Pseudomonas syringae pv. actinidiae assessed as reduction in bacterial growth measured at 100 ug/ml after 48 hrs by double dilution method. Format: functional. The settings on record: dose 100.0 µg/ml.
Experiment [6] has as its system Ralstonia solanacearum. Description: Antimicrobial activity against Ralstonia solanacearum assessed as reduction in bacterial growth at 100 ug/ml measured after 48 hrs by double dilution method. The settings on record: dose 100.0 µg/ml. In kind it is functional, organism-based.
Experiment [7] has as its system Escherichia coli. Kind of experiment: Antimicrobial activity against Escherichia coli assessed as reduction in bacterial growth at 100 ug/ml measured after 48 hrs by double dilution method. Format: functional, organism-based. The settings on record: dose 100.0 µg/ml.
The test system of experiment [8] is Pseudomonas sp. Kind of experiment: Antimicrobial activity against Pseudomonas sp. assessed as reduction in bacterial growth at 100 ug/ml measured after 48 hrs by double dilution method. The following applies: dose 100.0 µg/ml. Format: functional, organism-based.
The subject of experiment [9] is HeLa. Kind of experiment: Cytotoxicity against human HeLa cells assessed as reduction in cell viability measured after 48 hrs by CCK8 assay. Format: functional, cell-based.
For experiment [10], the system named is HepG2. Description: Cytotoxicity against human HepG2 cells assessed as reduction in cell viability measured after 48 hrs by CCK8 assay. In kind it is functional, cell-based. The following applies: HepG2, 48 h. A general note: Tetrazolium dyes change colour on reduction, which living cells bring about.
For experiment [11], the system named is Bacillus cereus. Kind of experiment: Antimicrobial activity against Bacillus cereus assessed as reduction in bacterial growth at 100 ug/ml measured after 48 hrs by double dilution method. In kind it is functional, organism-based. The following applies: dose 100.0 µg/ml.
In experiment [12] the test system is Staphylococcus aureus. Kind of experiment: Antimicrobial activity against Staphylococcus aureus assessed as reduction in bacterial growth at 100 ug/ml measured after 48 hrs by double dilution method. In kind it is functional, organism-based. The following applies: dose 100.0 µg/ml.
Experiment [13] concerns Pseudomonas sp. Description: Antimicrobial activity against Pseudomonas sp. assessed as reduction in bacterial growth measured after 48 hrs by double dilution method. In kind it is functional.

With `C[C@H](O)[C@H]1NC(=O)[C@@H](Cc2c[nH]c3ccccc23)NC1=O`, in experiment [1] (dose 100 µg/ml), the MIC came to 25 µg/mL (≈ 87 µM). Besides, the outcome in experiment [2], in experiment [3] and in experiment [4] was inactive.

As to `C[C@@H](O)[C@@H]1NC(=O)[C@H](Cc2c[nH]c3ccccc23)NC1=O`, the result in [5], in experiment [6], in experiment [1], in experiment [7], in experiment [8] and in experiment [11] was inactive. In addition, the outcome in [12], in experiment [2], in [3] and in [4] was inactive. The pIC50 in experiment [9] and in experiment [10] was below 4.70 in each case. Besides, in [13], the MIC is 50 µg/mL (≈ 174 µM).

As for `CS[C@@]1(Cc2c[nH]c3ccccc23)NC(=O)[C@H]([C@@H](C)O)NC1=O`, the result in experiment [5], in experiment [6], in experiment [1], in experiment [7], in experiment [8] and in experiment [11] was inactive. Further, the result in experiment [12] was inactive. The pIC50 in experiment [9] and in [10] was below 4.70 throughout.

As to `CS[C@@H]1C(=O)N2[C@@H]3Nc4ccccc4[C@]3(c3c[nH]c4ccccc34)[C@@H](O)[C@@]2(SC)C(=O)N1C`, the result in [5], in [6], in experiment [1], in [7], in experiment [8] and in experiment [11] was inactive. For the same compound, the result in experiment [12] was inactive. The negative-log IC50 (pIC50) in [9] and in experiment [10] was below 4.70 each time.

Turning to `O=C(O)c1ccc(O)c2c1Cc1cccn1-2`, the outcome in experiment [5], in [6], in [1], in experiment [7], in experiment [8] and in experiment [11] was inactive. For the same compound, the result in [12], in [2], in [3] and in [4] was inactive. In addition, the pIC50 in experiment [9] and in experiment [10] was below 4.70 throughout.

`C[C@@H](O)[C@]12SS[C@@]3(C(=O)N1C)[C@H](O)[C@@]1(c4c[nH]c5ccccc45)c4ccccc4N[C@H]1N3C2=O`: the outcome in [5], in [6], in [1], in experiment [7], in experiment [8] and in experiment [11] was inactive. For the same compound, the result in experiment [12] was inactive. Also, the pIC50 in experiment [9] was 6.38; in experiment [10], 6.22.

Turning to `CS[C@@]1(Cc2c[nH]c3ccccc23)NC(=O)[C@@](SC)([C@@H](C)O)NC1=O`, the outcome in [5], in [6], in experiment [1], in [7], in experiment [8] and in experiment [11] was inactive. The outcome in experiment [12] was inactive. Also, the pIC50 in [9] and in [10] was below 4.70 throughout.

As to `C[C@@H](O)[C@]12SS[C@@]3(C(=O)N1C)[C@H](O)C1([C@]45c6ccccc6N[C@H]4N4C(=O)[C@@]6([C@@H](C)O)SS[C@@]4(C(=O)N6C)[C@@H]5O)c4ccccc4N[C@H]1N3C2=O` (stereo not given in full), the outcome in experiment [5], in experiment [6], in experiment [1], in experiment [7], in experiment [8] and in [11] was inactive. Besides, in experiment [12], the result was inactive. Moreover, the pIC50 in experiment [9] is 6.92; in experiment [10], 6.43.

As for `CN1C(=O)C(=O)N2C(=C[C@@]3(c4c[nH]c5ccccc45)c4ccccc4N[C@@H]23)C1=O`, the outcome in [5], in experiment [6], in [1], in experiment [7], in experiment [8] and in experiment [11] was inactive. For the same compound, the result in experiment [12] was inactive. For the same compound, the negative-log IC50 (pIC50) in [9] and in experiment [10] was below 4.70 each time.

Consider `C[C@@H](O)[C@@H]1OC(=O)[C@@H]2[C@H]3c4c[nH]c5cccc(c45)C[C@H]3C(C)(C)N2C1=O`, for which the outcome in [5], in experiment [6], in experiment [1], in [7], in experiment [8] and in [11] was inactive. In addition, the result in [12], in [2] and in [4] was inactive. The negative logarithm of the IC50 (pIC50) in experiment [9] and in [10] was below 4.70 in each case. Further, the minimal inhibitory concentration (MIC) in experiment [3] was 50 µg/mL (≈ 141 µM).

Usually MIC stands for the least concentration at which growth counts as inhibited. Usually pIC50 stands for the IC50 on a negative log10 scale, so that one unit is a factor of ten.
